# According to patent US20140227731A1, “DRUG FOR ANALYSIS OF WATER TRANSPORT FUNCTION OF MEMBRANE PROTEIN IN BIOLOGICAL TISSUE” (TAIYO NIPPON SANSO CORPORATION, priority 2013, published 2014):
# Tested on: radish
# Experiment: Permeation of red food coloring water into round radish slices
# Method: Using radish that was cut into round slices with thicknesses of 6-10 cm, the bottom faces of the round slices were immersed in red food coloring water for 1-16 hours, As the red food coloring, Red No. 102 (chemical name: 7-hydroxy-8-(4-sulfonaphthylazo)-1,3-naphthylenedisulfonic acid=trisodium salt=1½ hydrate) was used.
smiles,measurement,setting,value
"O.O.O.O=S(=O)([O-])c1cc(S(=O)(=O)[O-])c2c(N=Nc3ccc(S(=O)(=O)[O-])c4ccccc34)c(O)ccc2c1.O=S(=O)([O-])c1cc(S(=O)(=O)[O-])c2c(N=Nc3ccc(S(=O)(=O)[O-])c4ccccc34)c(O)ccc2c1.[Na+].[Na+].[Na+].[Na+].[Na+].[Na+] [Red No. 102, 7-hydroxy-8-(4-sulfonaphthylazo)-1,3-naphthylenedisulfonic acid=trisodium salt=1½ hydrate]",permeation of red food coloring into radish tissue,"bottom face immersed, one hour elapsed",had soaked into the connective tissue at the periphery of the round slices from the bottom face
same,sites permeated by red food coloring water,immersed for 16 hours,not found anywhere other than the connective tissue
